EP0418835B1, “Novel alkaline pullulanase y having alpha-amylase activity, microorganism producing the same, and process for producing the same” (KAO CORPORATION, priority 1989, dated 1991)

Tests used:
Format in all cases: biochemical, Bacillus sp. KSM-AP1378
[1] = test system: alkaline pullulanase Y; assay: Substrate specificity (relative activity on various substrates); conditions: substrate concentration 1 x 10⁻² M
Method: (§1) 0.1 ml of enzyme solution was added to 0.9 ml of each substrate solution prepared from each buffer solution containing pullulan (final concentration in the reaction system: 0.25% w/v) and the mixture was reacted at 40°C for 30 minutes. After the reaction, reducing sugars were quantitatively determined by means of the 3,5-dinitro-salicylic acid (DNS) procedure. Specifically, 1.0 ml of a DNS reagent was added to 1.0 ml of reaction mixture and the mixture was heated at 100°C for 5 minutes to develop a color. After cooling, the mixture was diluted by adding 4.0 ml of deionized water. This solution was subjected to colorimetric quantitative analysis at a wave length of 535 nm. One unit (1 U) of enzyme activity was defined as the amount of enzyme which released 1 µmol of reducing sugar (as glucose) per minute under the standard assay conditions.
Acts on pullulan, soluble starch, and glycogen. (See Table 1) Table 1

[2] = test system: alkaline pullulanase Y; assay: Effects of metal ions and chelating agents on pullulanase activity (DNS reducing sugar assay)
Method: as §1

[3] = test system: alkaline pullulanase Y; assay: Effects of metal ions and chelating agents on α-amylase activity (DNS reducing sugar assay)
Method: as §1, with “soluble starch” for “pullulan”, “50°C” for “40°C”, “15” for “30”, “a DNS method.” for “the 3,5-dinitro-salicylic acid (DNS) procedure.”

Compound | Relative Activity (%) [1] | Residual activity (%) Pullulanase Activity ([2]; metal salt 1 mM) | Residual activity (%) α-amylase Activity ([3]; metal salt 1 mM) | also measured
OC[C@H]1O[C@H](O[C@H]2[C@H](O)[C@@H](O)C(O)O[C@@H]2CO)[C@H](O)[C@@H](O)[C@@H]1O (mixture of isomers) [Maltose] | 0% | – | – | –
[Cl][Cd][Cl] [CdCl₂] | – | 80% | 38% | –
O=C(O)CN(CCN(CC(=O)O)CC(=O)O)CC(=O)O [EDTA] | – | – | – | Residual activity (%) Pullulanase Activity ([2]; chelating agent 10 mM): 77%
O=C(O)CN(CCOCCOCCN(CC(=O)O)CC(=O)O)CC(=O)O [EGTA] | – | – | – | Residual activity (%) Pullulanase Activity ([2]; chelating agent 10 mM): 65%; Residual activity (%) α-amylase Activity ([3]; chelating agent 10 mM): 18%; Residual activity (%) α-amylase Activity when Ca⁺² ions was again added ([3]; chelating agent 10 mM, Ca⁺² ions added again (value in parenthesis)): 91%
OC[C@H]1O[C@@H](OC[C@H]2OC(O)[C@H](O)[C@@H](O)[C@@H]2O)[C@H](O)[C@@H](O)[C@@H]1O (some centres unmarked) [Gentiobiose] | 0% | – | – | –
OC[C@H]1O[C@H](OC[C@H]2OC(O)[C@H](O)[C@@H](O)[C@@H]2O)[C@H](O)[C@@H](O)[C@@H]1O (some centres unmarked) [Isomaltose] | 4% | – | – | –
OC[C@H]1O[C@H](OC[C@H]2O[C@H](OC[C@H]3OC(O)[C@H](O)[C@@H](O)[C@@H]3O)[C@H](O)[C@@H](O)[C@@H]2O)[C@H](O)[C@@H](O)[C@@H]1O (some centres unmarked) [Isomaltotriose] | 11% | – | – | –
OC[C@H]1O[C@H](O[C@H]2[C@H](O)[C@@H](O)[C@@H](O[C@H]3[C@H](O)[C@@H](O)C(O)O[C@@H]3CO)O[C@@H]2CO)[C@H](O)[C@@H](O)[C@@H]1O (some centres unmarked) [Maltotriose] | 0% | – | – | –
[Cl][Mn][Cl] [MnCl₂] | – | 51% | 28% | –
OC[C@H]1O[C@H](OC[C@H]2O[C@H](O[C@H]3[C@H](O)[C@@H](O)C(O)O[C@@H]3CO)[C@H](O)[C@@H](O)[C@@H]2O)[C@H](O)[C@@H](O)[C@@H]1O (some centres unmarked) [Panose] | 0% | – | – | –
[Cl][Pb][Cl] [PbCl₂] | – | 53% | 53% | –
[Cl-].[Cl-].[Zn+2] [ZnCl₂] | – | 93% | 57% | –
HgCl₂ | – | 36% | 53% | –
